# Test results published in US9630894B2, “Energy efficient method and apparatus for the extraction of biomolecules from dilute aqueous solution” (DYNASEP INC., priority 2012, dated 2017).
# Experiment: CCC extraction with DME of clarified fermentation broth from Clostridium acetobutylicum, GC and DNS assay
# Type: physicochemical
# Experimental: This example describes three different runs of the CCC with fermentation broth from Clostridium acetobutylicum. […] The fermentation was intentionally interrupted prior to completion.
# The extraction column operated at room temperature (˜25° C.) throughout the column. Periodic extract and raffinate samples were taken and analyzed for the constituents in the extract and raffinate discharges.
# This example describes three different runs. In all cases, the mass of solvent to the mass of feed ratio (S/F) was 0.9. In all example the fermentation broth was first centrifuged to removal all cellular matter. Thus, the feed solution was clarified. In the case of the first run, the following components were measured via gas chromatograph (GC) analysis using external standard calibration. The external standard was run prior to analyzing the samples to provide individual calibration between peak area and the respective constituent under measure. […] Acetate was the conjugate base of acetic acid. Butyrate was the conjugate base of butyric acid. All components were quantified in the extract and raffinate. Since the extract and raffinate are mostly water and DME dissolves in water to approximately 20 wt. %, the samples were allowed to degas over a 24 hour period.
# During the run, samples were taken of the extract and raffinate. In the case of the extract, the bulk DME was removed by reduction of pressure and addition of heat to flash the DME from the water and other solution constituents.
# Extract and raffinate samples were collected at periodic intervals during the CCC testing. […] Glucose was measured via a DNS (3,5-dinitrosalicylic acid) assay.
# In cases where the extract formed a two phase solution, the extract samples were diluted with distilled water to create a single phase and homogenous sample prior to GC. The dilution factor was then used to correct the GC measurements for concentrations prior to dilution.
# [1] = Run 3, Extract Bot, time 31 min
# [2] = Run 3, Extract Bot, time 37 min
# [3] = Run 3, Extract Top, time 31 min
# [4] = Run 3, Extract Top, time 37 min
compound,measurement,setting,value
CC(=O)C(C)O (stereo not shown) [Acetoin],concentration in sample,[1],1640 µg/mL
same,concentration in sample,[2],1880 µg/mL
same,concentration in sample,[3],910 µg/mL
same,concentration in sample,[4],1020 µg/mL
same,concentration in sample,"Run 3, Extract, time 22 min",960 µg/mL
same,concentration in sample,"Run 3, Extract, time 27 min",1000 µg/mL
same,concentration in sample,"Run 3, Extract, time 43 min",1830 µg/mL
same,concentration in sample,"Run 3, Extract, time 70 min",1620 µg/mL
same,concentration in sample,"Run 3, Extract, time 74 min",1460 µg/mL
same,concentration in sample,"Run 3, Extract, time 78 min",1600 µg/mL
same,concentration in sample,"Run 3, Extract, time 82 min",1650 µg/mL
same,concentration in sample,"Run 3, Feed, time 0 min",330 µg/mL
same,concentration in sample,"Run 3, Raffinate, time 22 min",70 µg/mL
same,concentration in sample,"Run 3, Raffinate, time 27 min",0 µg/mL
same,concentration in sample,"Run 3, Raffinate, time 31 min",0 µg/mL
same,concentration in sample,"Run 3, Raffinate, time 37 min",0 µg/mL
same,concentration in sample,"Run 3, Raffinate, time 43 min",0 µg/mL
same,concentration in sample,"Run 3, Raffinate, time 70 min",0 µg/mL
same,concentration in sample,"Run 3, Raffinate, time 74 min",0 µg/mL
same,concentration in sample,"Run 3, Raffinate, time 78 min",60 µg/mL
same,concentration in sample,"Run 3, Raffinate, time 82 min",0 µg/mL
"CCO [Ethanol, ethanol]",concentration in sample,[1],2290 µg/mL
same,concentration in sample,[2],2590 µg/mL
same,concentration in sample,[3],1980 µg/mL
same,concentration in sample,[4],2110 µg/mL
same,concentration in sample,"Run 3, Extract, time 22 min",1130 µg/mL
same,concentration in sample,"Run 3, Extract, time 27 min",1530 µg/mL
same,concentration in sample,"Run 3, Extract, time 43 min",2110 µg/mL
same,concentration in sample,"Run 3, Extract, time 70 min",1850 µg/mL
same,concentration in sample,"Run 3, Extract, time 74 min",1710 µg/mL
same,concentration in sample,"Run 3, Extract, time 78 min",1700 µg/mL
same,concentration in sample,"Run 3, Extract, time 82 min",1920 µg/mL
same,concentration in sample,"Run 3, Feed, time 0 min",800 µg/mL
same,concentration in sample,"Run 3, Raffinate, time 22 min",340 µg/mL
same,concentration in sample,"Run 3, Raffinate, time 27 min",400 µg/mL
same,concentration in sample,"Run 3, Raffinate, time 31 min",420 µg/mL
same,concentration in sample,"Run 3, Raffinate, time 37 min",640 µg/mL
same,concentration in sample,"Run 3, Raffinate, time 43 min",890 µg/mL
same,concentration in sample,"Run 3, Raffinate, time 70 min",1560 µg/mL
same,concentration in sample,"Run 3, Raffinate, time 74 min",710 µg/mL
same,concentration in sample,"Run 3, Raffinate, time 78 min",240 µg/mL
same,concentration in sample,"Run 3, Raffinate, time 82 min",1140 µg/mL
CC(=O)O [acetate],extraction into DME,"Run 1, pH greater than 5.5",not extracted
same,concentration in sample,[1],480 µg/mL
same,concentration in sample,[2],0 µg/mL
same,concentration in sample,[3],400 µg/mL
same,concentration in sample,[4],370 µg/mL
same,concentration in sample,"Run 3, Extract, time 22 min",410 µg/mL
same,concentration in sample,"Run 3, Extract, time 27 min",0 µg/mL
same,concentration in sample,"Run 3, Extract, time 43 min",480 µg/mL
same,concentration in sample,"Run 3, Extract, time 70 min",400 µg/mL
same,concentration in sample,"Run 3, Extract, time 74 min",0 µg/mL
same,concentration in sample,"Run 3, Extract, time 78 min",550 µg/mL
same,concentration in sample,"Run 3, Extract, time 82 min",400 µg/mL
same,concentration in sample,"Run 3, Feed, time 0 min",5470 µg/mL
same,concentration in sample,"Run 3, Raffinate, time 22 min",6780 µg/mL
same,concentration in sample,"Run 3, Raffinate, time 27 min",5370 µg/mL
same,concentration in sample,"Run 3, Raffinate, time 31 min",6420 µg/mL
same,concentration in sample,"Run 3, Raffinate, time 37 min",6010 µg/mL
same,concentration in sample,"Run 3, Raffinate, time 43 min",7110 µg/mL
same,concentration in sample,"Run 3, Raffinate, time 70 min",6840 µg/mL
same,concentration in sample,"Run 3, Raffinate, time 74 min",7770 µg/mL
same,concentration in sample,"Run 3, Raffinate, time 78 min",7070 µg/mL
same,concentration in sample,"Run 3, Raffinate, time 82 min",7290 µg/mL
CCCC(=O)O [butyrate],extraction into DME,"Run 1, pH greater than 5.5",About half
same,concentration in sample,[1],1570 µg/mL
same,concentration in sample,[2],1240 µg/mL
same,concentration in sample,[3],22090 µg/mL
same,concentration in sample,[4],22520 µg/mL
same,concentration in sample,"Run 3, Extract, time 22 min",3520 µg/mL
same,concentration in sample,"Run 3, Extract, time 27 min",9290 µg/mL
same,concentration in sample,"Run 3, Extract, time 43 min",2210 µg/mL
same,concentration in sample,"Run 3, Extract, time 70 min",1710 µg/mL
same,concentration in sample,"Run 3, Extract, time 74 min",1380 µg/mL
same,concentration in sample,"Run 3, Extract, time 78 min",3010 µg/mL
same,concentration in sample,"Run 3, Extract, time 82 min",1880 µg/mL
same,concentration in sample,"Run 3, Feed, time 0 min",1710 µg/mL
same,concentration in sample,"Run 3, Raffinate, time 22 min",50780 µg/mL
same,concentration in sample,"Run 3, Raffinate, time 27 min",19520 µg/mL
same,concentration in sample,"Run 3, Raffinate, time 31 min",880 µg/mL
same,concentration in sample,"Run 3, Raffinate, time 37 min",880 µg/mL
same,concentration in sample,"Run 3, Raffinate, time 43 min",880 µg/mL
same,concentration in sample,"Run 3, Raffinate, time 70 min",950 µg/mL
same,concentration in sample,"Run 3, Raffinate, time 74 min",970 µg/mL
same,concentration in sample,"Run 3, Raffinate, time 78 min",870 µg/mL
same,concentration in sample,"Run 3, Raffinate, time 82 min",930 µg/mL
"CC(C)CO [isobutanol, 2-methyl-1-propanol]",distribution coefficients compared,"Run 2, isobutanol versus butanol",approximately equal
same,Ratio of I/N (isobutanol/n-butanol),[1],1.16
same,concentration in sample,[1],39300 µg/mL
same,Ratio of I/N (isobutanol/n-butanol),[2],1.15
same,concentration in sample,[2],39690 µg/mL
same,Ratio of I/N (isobutanol/n-butanol),[3],1.04
same,concentration in sample,[3],316670 µg/mL
same,Ratio of I/N (isobutanol/n-butanol),[4],1.03
same,concentration in sample,[4],328990 µg/mL
same,Ratio of I/N (isobutanol/n-butanol),"Run 3, Extract, time 22 min",0.98
same,concentration in sample,"Run 3, Extract, time 22 min",18650 µg/mL
same,Ratio of I/N (isobutanol/n-butanol),"Run 3, Extract, time 27 min",1.10
same,concentration in sample,"Run 3, Extract, time 27 min",35800 µg/mL
same,Ratio of I/N (isobutanol/n-butanol),"Run 3, Extract, time 43 min",1.07
same,concentration in sample,"Run 3, Extract, time 43 min",35340 µg/mL
same,Ratio of I/N (isobutanol/n-butanol),"Run 3, Extract, time 70 min",1.05
same,concentration in sample,"Run 3, Extract, time 70 min",30950 µg/mL
same,Ratio of I/N (isobutanol/n-butanol),"Run 3, Extract, time 74 min",1.02
same,concentration in sample,"Run 3, Extract, time 74 min",31830 µg/mL
same,Ratio of I/N (isobutanol/n-butanol),"Run 3, Extract, time 78 min",1.01
same,concentration in sample,"Run 3, Extract, time 78 min",33190 µg/mL
same,Ratio of I/N (isobutanol/n-butanol),"Run 3, Extract, time 82 min",1.02
same,concentration in sample,"Run 3, Extract, time 82 min",37480 µg/mL
same,Ratio of I/N (isobutanol/n-butanol),"Run 3, Feed, time 0 min",1.24
same,concentration in sample,"Run 3, Feed, time 0 min",11650 µg/mL
same,Ratio of I/N (isobutanol/n-butanol),"Run 3, Raffinate, time 22 min",1.34
same,concentration in sample,"Run 3, Raffinate, time 22 min",2720 µg/mL
same,Ratio of I/N (isobutanol/n-butanol),"Run 3, Raffinate, time 27 min",1.22
same,concentration in sample,"Run 3, Raffinate, time 27 min",380 µg/mL
same,Ratio of I/N (isobutanol/n-butanol),"Run 3, Raffinate, time 31 min",1.28
same,concentration in sample,"Run 3, Raffinate, time 31 min",380 µg/mL
same,Ratio of I/N (isobutanol/n-butanol),"Run 3, Raffinate, time 37 min",1.29
same,concentration in sample,"Run 3, Raffinate, time 37 min",230 µg/mL
same,Ratio of I/N (isobutanol/n-butanol),"Run 3, Raffinate, time 43 min",1.42
same,concentration in sample,"Run 3, Raffinate, time 43 min",230 µg/mL
same,Ratio of I/N (isobutanol/n-butanol),"Run 3, Raffinate, time 70 min",1.37
same,concentration in sample,"Run 3, Raffinate, time 70 min",430 µg/mL
same,Ratio of I/N (isobutanol/n-butanol),"Run 3, Raffinate, time 74 min",1.45
same,concentration in sample,"Run 3, Raffinate, time 74 min",480 µg/mL
same,Ratio of I/N (isobutanol/n-butanol),"Run 3, Raffinate, time 78 min",1.41
same,concentration in sample,"Run 3, Raffinate, time 78 min",480 µg/mL
same,Ratio of I/N (isobutanol/n-butanol),"Run 3, Raffinate, time 82 min",1.44
same,concentration in sample,"Run 3, Raffinate, time 82 min",480 µg/mL
sugar,extraction into DME,Run 2,a significant portion of the sugar was not extracted
same,concentration in sample,[1],4740 µg/mL
same,concentration in sample,[2],5780 µg/mL
same,concentration in sample,[3],0 µg/mL
same,concentration in sample,[4],0 µg/mL
same,concentration in sample,"Run 3, Extract, time 22 min",1460 µg/mL
same,concentration in sample,"Run 3, Extract, time 27 min",1440 µg/mL
same,concentration in sample,"Run 3, Extract, time 43 min",6200 µg/mL
same,concentration in sample,"Run 3, Extract, time 70 min",3940 µg/mL
same,concentration in sample,"Run 3, Extract, time 74 min",3870 µg/mL
same,concentration in sample,"Run 3, Extract, time 78 min",4810 µg/mL
same,concentration in sample,"Run 3, Extract, time 82 min",4950 µg/mL
same,concentration in sample,"Run 3, Feed, time 0 min",48470 µg/mL
same,concentration in sample,"Run 3, Raffinate, time 22 min",1390 µg/mL
same,concentration in sample,"Run 3, Raffinate, time 27 min",950 µg/mL
same,concentration in sample,"Run 3, Raffinate, time 31 min",47660 µg/mL
same,concentration in sample,"Run 3, Raffinate, time 37 min",41230 µg/mL
same,concentration in sample,"Run 3, Raffinate, time 43 min",48870 µg/mL
same,concentration in sample,"Run 3, Raffinate, time 70 min",42100 µg/mL
same,concentration in sample,"Run 3, Raffinate, time 74 min",44360 µg/mL
same,concentration in sample,"Run 3, Raffinate, time 78 min",48180 µg/mL
same,concentration in sample,"Run 3, Raffinate, time 82 min",43140 µg/mL
